Tests used:
[1] = toxicological results, single I.P. dose, DL0 and DL50; type: in vivo, mouse; settings: mice
Text: DL0, DL50, single I.P. dose administered to the aforementioned strains of mice.

melanoma B16 [2] = assay: "in vivo" activity on melanoma B16, 20 mg/kg i.p. days 1, 5, 9; set-up: species or system mouse; settings: for percentage of cured mice: surviving more than 60 days
Experimental: Female C57 B 1/6 mice were used, about 8 weeks old and weighing about 20 g, from the IFFA-CREDO center.
At day "0", each mouse received intraperitoneally an inoculum of 2×10^6 tumor cells in a volume of 0.5 ml.
After tumoral graft, distribution at random was carried out as indicated above, to obtain a control series of 8 cages and 5 experimental series of 4 cages each, and of which the mice were intended to be treated by the compounds of the invention.
(§1) The protocol was identical for the 3 tumors and the 5 compounds of the invention to be tested.
(§2) As regards the experimental series to be treated, each mouse received, at days 1, 5 and 9, intraperitoneally, a dose of 20 mg/kg of the compound to be tested, in the volume of 0.2 ml of neutralized and sterilized olive oil.
(§3) As regards the control series, each mouse received, intraperitoneally, 0.2 ml of neutralized and sterilized olive oil.
(§4) The results are expressed by the relative increase in survival (T/C×100) calculated from the average survival of the treated animals (T) and that of the control animals (C)
(§5) The mice surviving more than 60 days were considered as cured.
(§6) The figures between parentheses indicate the percentage of cured mice.

Tumor LEWIS 3LL = assay: "in vivo" activity on Lewis tumor, 20 mg/kg i.p. days 1, 5, 9; set-up: species or system mouse; settings: for percentage of cured mice: surviving more than 60 days
Experimental: Procedure was under the conditions which have just been described previously with regard to melanoma B16, by injecting the tumor cells, in the proportion of 2×10^6 per mouse, in the volume of 0.2 ml.
as §1, §2, §3, §4, §5, §6

L 1210 IGR TUMOR = assay: "in vivo" activity on L1210 IGR tumor, 5 mg/kg i.p. days 1, 5, 9; set-up: species or system mouse
Experimental: (§7) The experiments were identical to those described in preceding paragraph 4 but lower doses were used.
The same protocol was carried out with the tumor L1210 IGR, by inoculating 10^5 tumor cells of L1210 IGR intraperitoneally in the volume of 0.2 ml then, at days 1, 5 and 9, there were injected intraperitoneally 5 mg/kg of each of the compounds to be tested.

L 1210 USA Tumor = assay: "in vivo" activity on L1210 U.S.A. tumor, 5 mg/kg i.p. days 1, 5, 9; set-up: species or system mouse
Experimental: The tumor L1210 U.S.A. is more resistant than tumor L1210 IGR.
as §7
There were inoculated into the mice, 10^5 tumor cells of L1210 U.S.A. intraperitoneally in a volume of 0.2 ml.
At days 1, 5 and 9, the compounds of the invention under test were injected intraperitoneally, at a lower dose than that used in the experiment described at 4, that is to say in the proportion of 5 mg/kg.

leucemia L 1210 IGR = assay: "in vivo" activity on leucemia L1210 IGR, 20 mg/kg i.p. days 1, 5, 9; set-up: species or system mouse; settings: for percentage of cured mice: surviving more than 60 days
Experimental: Female DBA2 mice were used, about 8 weeks old and weighing about 20 g from the IFFA-CREDO center (les Oncins, 69210 Arbresles)
At day "0", each mouse received intraperitoneally an inoculum of […] in a volume of 0.2 ml.
After tumoral graft, the mice were distributed at random into 21 cages of 5 animals, themselves then distributed, by drawing lots, into 6 experimental series. Within these 6 experimental series, there were constituted a control series of 6 cages and 5 experimental series of 3 cages each, and of which the mice were intended to be treated by the compounds of the invention.
as §1, §2, §3, §4, §5, §6

L 1210 cells = assay: cytotoxic index after 1 h contact, potential "in vivo" activity (TEST N° 2); type: cell-based, mouse
Experimental: The test used is that of W. J. Durkin et al. Cancer Research 1979, 39, 402-407, modified.
All the nitrosoureas were dissolved in 70% ethanol in the proportion of 10 mg/ml.
2--Determination of the potential "in vivo" activity
L 1210 cells, under conditions similar to the preceding protocol, were contacted for 1 hour with a dose of the various products tested corresponding to a cytotoxic index equal to 20%. After this time, the cells were placed in culture medium not containing nitrosoureas and incubated at 37° C. After 48 hours, the cytotoxic index was determined.

colon carcinoma C38 [3] = assay: activity on colon carcinoma C38 implanted subcutaneously, I.P. days 2 and 9; type: in vivo, mouse; settings: I.P.
Experimental: A tumor fragment is implanted on day 0 in female B6 D2 F1 mice (19-22 g). The treatment with all of the products is administered by the I.P. route on days 2 and 9 (which is a delayed treatment). The weight of the tumors is calculated on day 20.

colon carcinoma C38 [4] = assay: colon carcinoma C38, comparison of I.V. and I.P. routes, treatment days 8, 12, 16; type: in vivo, mouse; set-up: key to Median wt. of the tumor D20 / Median wt. of the tumor D27: median tumor weight in mg; settings: I.P. Route, 20 mg/kg/inj.
Experimental: With a view to verifying the antitumor activity of the product of the invention CI.1671 when it is administered by the I.V. route, another experiment was performed in which this product was administered by the I.P. route and the I.V. route for the purposes of comparison.
This experiment is carried out under particularly difficult conditions, the first day of the treatment corresponding to the eighth day after the implantation of the carcinoma C38, whereas normally the treatment starts on the day of implantation of the tumor (D0) or 1 day after (D1) the implantation of the tumor.
The median weight of the tumors on the first day of treatment (day 8) is about 12 mg (tumors varying from 8 to 40 mg). The animals are treated on days 8, 12 and 16 depending on the different routes indicated. […]

melanoma B16 [5] = assay: activity toward melanoma B16 implanted subcutaneously, I.V. route; type: in vivo, mouse; settings: 20 mg/kg/inj. days 3, 7, 11
Experimental: The activity of the substances of the invention was also tested by administering the said substances of the invention by the I.V. route. 0.5 ml of an homogenate of the tumor (1 g/10 ml) is administered to B6C3F1 female mice by the subcutaneous (S.C. route) on day 0. The products of the invention and the substances used for comparison are administered on days 3, 7 and 11 in isotonic solution.
In Table IIA below the results are presented relating to the activity of the substance CI. 1675 administered by the I.V. route on the growth of the melanoma B16 implanted subcutaneously, in comparison with carmustine BCNU marketed under the name of BiCNU®.
In Table IIA below and in the subsequent tables, T represents the mean weight (or median) of the tumors in the treated mice, C represents the mean weight (or median) of the tumors in the control, untreated mice and the ratio T/C% corresponds to T/C×100.

Compound	relative increase in survival (T/C×100) (melanoma B16 [2])	percentage of cured mice (melanoma B16 [2]) [%]	relative increase in survival (T/C×100) (Tumor LEWIS 3LL)	percentage of cured mice (Tumor LEWIS 3LL) [%]	Median survival (L 1210 IGR TUMOR)	T/C × 100 (average survival) (L 1210 IGR TUMOR)	T/C × 100 (median survival) (L 1210 IGR TUMOR)	Average survival ±2 σm (L 1210 USA Tumor)	Median survival (L 1210 USA Tumor)	T/C × 100 (average survival) (L 1210 USA Tumor)	T/C × 100 (median survival) (L 1210 USA Tumor)	relative increase in survival (T/C×100) (leucemia L 1210 IGR)	percentage of cured mice (leucemia L 1210 IGR) [%]	also measured
CO[C@H]1O[C@H](C)C[C@H](NC(=O)N(CCCl)N=O)[C@H]1O [IC. 85-1590, methyl 3-[3-(2-chloroethyl) 3-nitroso-ureido] 3,4,6-trideoxyα-D-xylo-hexopyranoside]														DL0 [1]: ≥ 25 mg/kg
CO[C@@H]1C[C@@H](NC(=O)N(CCCl)N=O)[C@H](O)[C@@H](CO)O1 [IC 1184, Methyl 3-[3-(2-chloroethyl) 3-nitrosoureido] 2,3-didesoxy α-D-arabinohexopyranoside]	235	15	.infin. (The sign 00 indicates that 50% at least of the mice were cured)	90	24	378	265	18 ± 1,19	17,8	209	205	556	47	
CO[C@@H]1C[C@@H](NC(=O)N(CCCl)N=O)[C@H](O)[C@@H](CNC(=O)N(CCCl)N=O)O1 [IC 1374, Methyl bis 3,6-[3-(2-chloroethyl) 3-nitrosoureido] 2,3,6-tridesoxy α-D-arabinohexopyranoside]	246	10	.infin. (The sign 00 indicates that 50% at least of the mice were cured)	75	16,75	189	185	12,9 ± 0,55	13,1	150	151	.infin. (The sign 00 indicates that 50% at least of the mice were cured)	67	CYTOTOXIC INDEX (L 1210 cells; 1 hour contact at dose giving 20% index, read after 48 hours): 71%; POTENTIAL "IN VIVO" ACTION (L 1210 cells; active if cytotoxic index ≥40%): + (if the cytotoxic index was equal to or greater than 40%, the product concerned would be active "in vivo" in the mouse); Average survival ±2 σm (L 1210 IGR TUMOR): 17,1 ± 2,10
CN(C)S(=O)(=O)CCNC(=O)N(CCCl)N=O [TCNU, reference compound]														Number of mice without tumor/total (colon carcinoma C38 [3]; 7.5 mg/kg/inj. days 2 and 9): 2/10; T/C (colon carcinoma C38 [3]; 7.5 mg/kg/inj. days 2 and 9): 65%; Weight of the tumor on day 20 (colon carcinoma C38 [3]; 7.5 mg/kg/inj. days 2 and 9): 266 mg; Number of mice without tumor/total (colon carcinoma C38 [3]; 15 mg/kg/inj. days 2 and 9): 7/10; T/C (colon carcinoma C38 [3]; 15 mg/kg/inj. days 2 and 9): 0%; Weight of the tumor on day 20 (colon carcinoma C38 [3]; 15 mg/kg/inj. days 2 and 9): 0 mg; dead mice (remarks) (colon carcinoma C38 [3]; 30 mg/kg/inj. days 2 and 9): 10
O=NN(CCCl)C(=O)NCCCl [BCNU, (1,3-bis-2-chloroethyl)-1-nitrosourea, reference compound]														Median wt. of the tumor D20 (colon carcinoma C38 [4]): 196; Median wt. of the tumor D27 (colon carcinoma C38 [4]): 274; Mice without tumor/total D20 (colon carcinoma C38 [4]): 0/8; Mice without tumor/total D27 (colon carcinoma C38 [4]): 0/6; T/C % D20 (colon carcinoma C38 [4]): 34%; T/C % D27 (colon carcinoma C38 [4]): 21%; Median weight of the tumor on day 3 (melanoma B16 [5]): 40 mg; Median weight of the tumor on day 30 (melanoma B16 [5]): 2 581 mg; T/C on day 30 (tumor weight) (melanoma B16 [5]): 33,0%
